Measurements as given in patent publication US10143719B2, “Inhibitors of valosin-containing protein and methods of use” (CASE WESTERN RESERVE UNIVERSITY, priority 2015, dated 2018).
Residues, ends and D or L forms follow the SMILES beside them. *: point of attachment. Cbz = O=C(OCc1ccccc1)*

Tested on: Htt or mtHtt
Experiment: Htt/mtHtt protein levels after proteasome or VCP inhibitor
Format: cell-based, mouse
Conditions: HdhQ or HdhQ111 cells
From the text: VCP plays a central role in protein degradation by binding to its substrates.

| SMILES | Htt or mtHtt protein levels |
| --- | --- |
| CC1(C)C(N(O)C(=O)Nc2ccc(Cl)cc2)N(c2ccc(Cl)cc2)C(=O)N1CC(=O)N/N=C/C=C/c1ccc([N+](=O)[O-])o1 (centres unmarked) [Eeyarestatin I] | did not affect Htt or mtHtt protein levels |
| CC(C)C[C@@H](C=O)NC(=O)[C@H](CC(C)C)NC(=O)[C@H](CC(C)C)NC(=O)OCc1ccccc1 [MG132] (Cbz-Leu-Leu-Leu-aldehyde) | did not affect Htt or mtHtt protein levels |
